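Results reflect a 48-hour exposure of cells in 96-well plates to compound at five concentrations. GI50 marks 50% less growth.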 Activity calls are given as the source filed them. Rule as the data show it: active = GI50 up to about 1.1 µM and inactive = higher.
How the values were obtained:
Experiment in all cases: NCI-60 cell line screen, 48 h
[1] = test system: HOP-62
[2] = test system: HOP-92
[3] = test system: HT-29
[4] = test system: KM12
[5] = test system: LOX IMVI
[6] = test system: M14
[7] = test system: MDA-N
[8] = test system: NCI-H23
[9] = test system: NCI-H522
[10] = test system: NCI/ADR-RES
[11] = test system: PC-3
[12] = test system: RPMI-8226
[13] = test system: SK-MEL-5
[14] = test system: SW-620
[15] = test system: T47D
[16] = test system: UO-31
[17] = test system: ACHN

Measured: GI50

O=C1CSC(c2c[nH]c3ccccc23)N1c1ccc(Cl)cc1Cl (stereo not given)
inactive: [1] > 100 µM | [2] > 100 µM | [3] > 100 µM | [4] > 100 µM | [5] > 100 µM | [6] > 100 µM | [7] > 100 µM | [8] > 100 µM | [9] > 100 µM | [10] > 100 µM | [11] > 100 µM | [12] > 100 µM | [13] > 100 µM | [14] > 100 µM | [15] > 100 µM | [16] > 100 µM

C[C@@](Br)(C(=O)O)[C@H](Br)C(=O)O
inactive: [17] > 100 µM | [1] > 100 µM | [2] > 100 µM | [3] > 100 µM | [4] > 100 µM | [5] > 100 µM | [6] > 100 µM | [7] > 100 µM | [8] > 100 µM | [10] > 100 µM | [11] > 100 µM | [12] > 100 µM | [13] > 100 µM | [14] > 100 µM | [15] > 100 µM | [16] > 100 µM

COC(=O)c1ccc(CN2CCc3c([nH]c4ccccc34)C2CO)o1 (stereo not given)
inactive: [1] > 10 µM | [2] > 10 µM | [3] > 10 µM | [4] > 10 µM | [6] > 10 µM | [7] > 10 µM | [8] > 10 µM | [9] > 10 µM | [11] > 10 µM | [12] > 10 µM | [13] > 10 µM | [14] > 10 µM | [15] > 10 µM

CC(=O)CC(=O)c1cc2c(=O)oc(C)cc2oc1=O
inactive: [17] > 37.5 µM | [1] > 37.5 µM | [3] > 37.5 µM | [4] > 37.5 µM | [6] > 37.5 µM | [7] > 37.5 µM | [8] > 37.5 µM | [9] > 37.5 µM | [10] > 37.5 µM | [11] > 37.5 µM | [12] > 37.5 µM | [13] > 37.5 µM | [14] > 37.5 µM | [16] > 37.5 µM

O=C(c1ccco1)n1c2ccc(Br)cc2c2nc3ccccc3nc21
inactive: [17] 27.4 µM | [1] 16.1 µM | [2] 30.5 µM | [3] 81.5 µM | [4] 26.8 µM | [5] 46.3 µM | [6] > 100 µM | [7] > 100 µM | [8] 23.7 µM | [9] 12.1 µM | [10] 35.6 µM | [11] 50.4 µM | [12] 11.2 µM | [13] > 100 µM | [14] 42.6 µM | [15] > 100 µM | [16] 27 µM

COC(=O)C1=C(\c2ccccc2)c2ccccc2C(=O)N(C2CCCCC2)/C=C\1
inactive: [17] 15.6 µM | [1] 21.3 µM | [2] 14.9 µM | [3] 21.9 µM | [4] 13.9 µM | [5] 14.2 µM | [6] 28.6 µM | [7] 29.5 µM | [8] 17.1 µM | [9] 36.4 µM | [10] 26.5 µM | [11] 10.5 µM | [13] 11.5 µM | [14] 28.6 µM | [16] 22.6 µM

COc1cc(/C=C2\C(=O)N(c3cccc(NC(C)=O)c3)C(c3ccccc3)S2(=O)=O)cc(OC)c1OC (stereo not given)
inactive: [17] > 100 µM | [1] > 100 µM | [2] > 100 µM | [3] 55.2 µM | [4] 49.8 µM | [5] 54.2 µM | [6] > 100 µM | [7] 40.4 µM | [8] 79.4 µM | [9] 28.4 µM | [10] 94.6 µM | [11] 42.6 µM | [12] 40.7 µM | [13] 39.1 µM | [14] 56.2 µM | [15] 34.7 µM | [16] 50.5 µM

CC(C)(CC(=O)Nc1ccccc1)C(=O)O
inactive: [17] > 100 µM | [1] > 100 µM | [2] > 100 µM | [3] > 100 µM | [4] > 100 µM | [5] > 100 µM | [6] > 100 µM | [7] > 100 µM | [8] > 100 µM | [10] > 100 µM | [11] > 100 µM | [12] > 100 µM | [13] > 100 µM | [14] > 100 µM | [15] > 100 µM | [16] > 100 µM

N#C[BH2-][n+]1cn(C2CC(O)C(COP(=O)(O)OC3CC(n4c[n+]([BH2-]C#N)c5c(=O)[nH]c(N)nc54)OC3CO)O2)c2nc(N)[nH]c(=O)c21 (stereo not given)
inactive: [17] > 100 µM | [1] > 100 µM | [2] > 100 µM | [3] > 100 µM | [4] > 100 µM | [6] > 100 µM | [7] > 100 µM | [8] > 100 µM | [9] > 100 µM | [10] > 100 µM | [11] > 100 µM | [12] > 100 µM | [13] > 100 µM | [14] > 100 µM | [15] > 100 µM | [16] > 100 µM
